According to PubChem BioAssay AID248 (DTP/NCI, 2004):
Where “and” joins values, the source holds several entries; their conditions need not be identical. Equal values may be shown once. Toxic doses and inconclusive results are not listed. Rule as the data show it: active = T/C of 150% or more; inactive = T/C below 125%.

Test system: L1210 leukemia ip in BDF1 mice, survival T/C
Test: NCI In Vivo Anticancer Drug Screen. Data for tumor model L1210 Leukemia (intraperitoneal) in B6D2F1 (BDF1) mice
Conditions: endpoint: mean survival time, higher = longer survival
Outline: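 Tumor cells were implanted, animals were treated, and survival was followed. The result divides the treated measurement by the vehicle-control measurement.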

[1] = dose: 50.0 mg/kg/injection, schedule: Q04DX002 (ip), vehicle: Klucel (hydroxypropylcellulose) (HPC)
[2] = dose: 100.0 mg/kg/injection, schedule: Q04DX002 (ip), vehicle: Klucel (hydroxypropylcellulose) (HPC)
[3] = dose: 200.0 mg/kg/injection, schedule: Q04DX002 (ip), vehicle: Klucel (hydroxypropylcellulose) (HPC)
[4] = dose: 400.0 mg/kg/injection, schedule: Q04DX002 (ip), vehicle: Klucel (hydroxypropylcellulose) (HPC)
[5] = dose: 100.0 mg/kg/injection, schedule: Q01DX001 (ip), vehicle: Klucel (hydroxypropylcellulose) (HPC)
[6] = dose: 200.0 mg/kg/injection, schedule: Q01DX001 (ip), vehicle: Klucel (hydroxypropylcellulose) (HPC)
[7] = dose: 400.0 mg/kg/injection, schedule: Q01DX001 (ip), vehicle: Klucel (hydroxypropylcellulose) (HPC)
[8] = dose: 100.0 mg/kg/injection, schedule: Q01DX009 (ip), vehicle: Klucel (hydroxypropylcellulose) (HPC)
[9] = dose: 200.0 mg/kg/injection, schedule: Q01DX009 (ip), vehicle: Klucel (hydroxypropylcellulose) (HPC)
[10] = dose: 400.0 mg/kg/injection, schedule: Q01DX009 (ip), vehicle: Klucel (hydroxypropylcellulose) (HPC)
[11] = dose: 100.0 mg/kg/injection, schedule: Q01DX009 (ip), vehicle: saline with Tween-80
[12] = dose: 50.0 mg/kg/injection, schedule: Q01DX001 (ip), vehicle: Klucel (hydroxypropylcellulose) (HPC)
[13] = dose: 100.0 mg/kg/injection, schedule: Q01DX001 (ip), vehicle: saline
[14] = dose: 400.0 mg/kg/injection, schedule: Q01DX001 (ip), vehicle: saline

Measured: T/C

Nc1nccnc1C(=O)NOCc1ccccc1
inactive: dose: 25.0 mg/kg/injection, schedule: Q04DX002 (ip), vehicle: Klucel (hydroxypropylcellulose) (HPC) 90 % of control | [1] 90 % of control | [2] 101 % of control and 111 % of control | [3] 105 % of control | [4] 96 % of control and 97 % of control

COc1c(F)c(F)c(Oc2c(F)c(F)c(OC)c(F)c2F)c(F)c1F
inactive: [5] 99 % of control | [6] 92 % of control | [7] 94 % of control

CSc1nsc(SC)c1C#N
inactive: [8] 103 % of control | [9] 97 % of control | [10] 92 % of control

O=C1c2ccccc2C(=O)N1CNc1ccccc1Cl
inactive: [11] 93 % of control | dose: 100.0 mg/kg/injection, schedule: Q04DX002 (ip), vehicle: saline with Tween-80 98 % of control | dose: 200.0 mg/kg/injection, schedule: Q01DX009 (ip), vehicle: saline with Tween-80 93 % of control | dose: 200.0 mg/kg/injection, schedule: Q04DX002 (ip), vehicle: saline with Tween-80 91 % of control | dose: 400.0 mg/kg/injection, schedule: Q01DX009 (ip), vehicle: saline with Tween-80 100 % of control | dose: 400.0 mg/kg/injection, schedule: Q04DX002 (ip), vehicle: saline with Tween-80 88 % of control

CCN(CC)S(=O)(=O)c1cccc([N+](=O)[O-])c1
inactive: [11] 99 % of control

CC1=Cc2ccc(C)cc2C(=O)C1=O
inactive: dose: 6.25 mg/kg/injection, schedule: Q04DX003 (ip), vehicle: saline with Tween-80 94 % of control

CCc1nc(N(C)CC(=O)O)nc(CC)c1-c1ccccc1O
inactive: [1] 111 % of control | [2] 101 % of control and 86 % of control | [3] 104 % of control | [4] 86 % of control

S=C(N/N=C/c1ccccc1Cl)Nc1ccccc1
inactive: [8] 95 % of control | [9] 100 % of control | [10] 101 % of control

Cc1cc(C)cc(Cc2ccc3ccccc3c2)c1
inactive: [12] 109 % of control | [5] 98 % of control | [6] 96 % of control | [7] 90 % of control

O=S(c1ccc(Cl)cc1)N(OCc1ccccc1)S(=O)c1ccc(Cl)cc1 (stereo unspecified)
inactive: [12] 107 % of control | [5] 100 % of control | [6] 100 % of control

CCOC(=O)CCC(C(=O)OCC)c1nc2ccccc2[nH]c1=O (stereo unspecified)
inactive: dose: 100.0 mg/kg/injection, schedule: Q04DX003 (ip), vehicle: Klucel (hydroxypropylcellulose) (HPC) 108 % of control | dose: 200.0 mg/kg/injection, schedule: Q04DX003 (ip), vehicle: Klucel (hydroxypropylcellulose) (HPC) 108 % of control | dose: 400.0 mg/kg/injection, schedule: Q04DX003 (ip), vehicle: Klucel (hydroxypropylcellulose) (HPC) 96 % of control

CCC1N(C)CCCN1C
inactive: dose: 100.0 mg/kg/injection, schedule: Q04DX003 (ip), vehicle: saline with Tween-80 97 % of control | dose: 200.0 mg/kg/injection, schedule: Q04DX003 (ip), vehicle: saline with Tween-80 95 % of control

O=C(N/N=C/c1ccc(Cl)cc1Cl)c1cccc2ccccc12
inactive: [13] 92 % of control | [14] 86 % of control

CN(C)c1nc(N)nc2c1nc(Cl)n2C1OC(CO)C(O)C1O (stereo unspecified)
inactive: [13] 97 % of control | dose: 200.0 mg/kg/injection, schedule: Q01DX001 (ip), vehicle: saline 94 % of control | [14] 105 % of control

O=C(O)c1ccc(SCc2ccccc2)cc1
inactive: [8] 103 % of control | [9] 101 % of control | [10] 93 % of control

Cc1csc[n+]1C
inactive: dose: 75.0 mg/kg/injection, schedule: Q01DX001 (ip), vehicle: saline 98 % of control | dose: 150.0 mg/kg/injection, schedule: Q01DX001 (ip), vehicle: saline 102 % of control

N#C/C=C/C1=CCCCC1
inactive: dose: 100.0 mg/kg/injection, schedule: Q04DX003 (ip), vehicle: saline 101 % of control | dose: 200.0 mg/kg/injection, schedule: Q04DX003 (ip), vehicle: saline 97 % of control | dose: 400.0 mg/kg/injection, schedule: Q04DX003 (ip), vehicle: saline 93 % of control

Oc1cc(CN2CCCC2)c(O)cc1CN1CCCC1
inactive: dose: 75.0 mg/kg/injection, schedule: Q01DX001 (ip), vehicle: carboxymethylcellulose (CMC) 111 % of control | dose: 150.0 mg/kg/injection, schedule: Q01DX001 (ip), vehicle: carboxymethylcellulose (CMC) 105 % of control

O=C(NCS(=O)(=O)O)OCc1ccccc1
inactive: dose: 100.0 mg/kg/injection, schedule: Q01DX001 (ip), vehicle: other 98 % of control | dose: 100.0 mg/kg/injection, schedule: Q04DX003 (ip), vehicle: other 96 % of control | dose: 200.0 mg/kg/injection, schedule: Q01DX001 (ip), vehicle: other 104 % of control | dose: 200.0 mg/kg/injection, schedule: Q04DX003 (ip), vehicle: other 102 % of control | dose: 400.0 mg/kg/injection, schedule: Q01DX001 (ip), vehicle: other 96 % of control | dose: 400.0 mg/kg/injection, schedule: Q04DX003 (ip), vehicle: other 96 % of control

O=C(Nc1ccc([N+](=O)[O-])cc1Cl)Oc1ccc(Cl)cc1Cl
inactive: dose: 100.0 mg/kg/injection, schedule: Q01DX001 (ip), vehicle: carboxymethylcellulose (CMC) 97 % of control | dose: 100.0 mg/kg/injection, schedule: Q01DX009 (ip), vehicle: carboxymethylcellulose (CMC) 109 % of control and 91 % of control | dose: 100.0 mg/kg/injection, schedule: Q04DX002 (ip), vehicle: carboxymethylcellulose (CMC) 94 % of control and 90 % of control | dose: 100.0 mg/kg/injection, schedule: Q04DX003 (ip), vehicle: carboxymethylcellulose (CMC) 102 % of control | dose: 200.0 mg/kg/injection, schedule: Q01DX001 (ip), vehicle: carboxymethylcellulose (CMC) 97 % of control | dose: 200.0 mg/kg/injection, schedule: Q01DX009 (ip), vehicle: carboxymethylcellulose (CMC) 102 % of control and 91 % of control | dose: 200.0 mg/kg/injection, schedule: Q04DX002 (ip), vehicle: carboxymethylcellulose (CMC) 93 % of control and 110 % of control | dose: 200.0 mg/kg/injection, schedule: Q04DX003 (ip), vehicle: carboxymethylcellulose (CMC) 94 % of control | dose: 400.0 mg/kg/injection, schedule: Q01DX001 (ip), vehicle: carboxymethylcellulose (CMC) 98 % of control | dose: 400.0 mg/kg/injection, schedule: Q01DX009 (ip), vehicle: carboxymethylcellulose (CMC) 98 % of control | dose: 400.0 mg/kg/injection, schedule: Q04DX002 (ip), vehicle: carboxymethylcellulose (CMC) 93 % of control and 105 % of control | dose: 400.0 mg/kg/injection, schedule: Q04DX003 (ip), vehicle: carboxymethylcellulose (CMC) 98 % of control
